US20220111034A1, “VIRUS COMPOSITIONS” (priority 2019, published 2022)

Tests used:
[1] = tested on: JAM-A on Lec2-JAM-A cells; test: FD-based AFM with virus-functionalized tip on living Lec2-JAM-A cells, with glycan addition; assay type: cell-based, human; conditions: for T3SA+ adhesion events in the high force range (400 to 500 pN) / T3SA+ binding frequency after glycan injection / T3SA+ binding frequency before glycan injection: Lec2-JAM-A cells; for T3SA+ adhesion events in the high force range (400 to 500 pN): FIG. 8; for T3SA+ binding frequency after glycan injection / T3SA+ binding frequency before glycan injection: FIG. 9; for T3SA+ binding frequency before glycan injection: baseline of the same experiment
Description: Engineering and characterization of cell lines expressing JAM-A. Monolayers of CHO (ATCC, #CCL-61) and Lec2 (ATCC, #CRL-1736) cells were transduced with lentiviruses encoding a puromycin resistance gene and human JAM-A or a puromycin resistance gene alone. Transduced cells were selected for puromycin resistance by passaging twice in medium containing 20 μg ml^−1 puromycin. The concentration of puromycin used was the minimal concentration that yielded complete death of non-transduced CHO and Lec2 cells. Following selection for puromycin resistance, cells were further selected for cell surface expression of JAM-A using fluorescence-activated cell sorting (FACS). Cell-surface expression of JAM-A was detected using the monoclonal antibody, J10.4 (Liu et al. Human junction adhesion molecule regulates tight junction resealing in epithelia. J. Cell Sci. 2000, vol. 113, 2363-2374), and a fraction of cells with high JAM-A expression was collected and propagated using puromycin selection. In the ensuing Examples, cells transduced and selected for puromycin resistance alone will be referred to as CHO and Lec2 and those selected for puromycin resistance and JAM-A expression will be referred to as CHO-JAM-A and Lec2-JAM-A, respectively.
Correlative images were acquired on an AFM (Bioscope Catalyst and Bioscope Resolve, Bruker) operated in the PeakForce QNM mode (Nanoscope software v9.2) to conduct FD-based AFM and coupled to an inverted epifluorescence microscope (Zeiss Observer Z.1) as described (Newton et al. 2017, supra; Knoops et al. Specific Interactions Measured by AFM on Living Cells between Peroxiredoxin-5 and TLR4: Relevance for Mechanisms of Innate Immunity. Cell chemical biology 2018, vol. 25, 550-559, e553). A 40× oil objective (NA=0.95) was used. The AFM was equipped with a 150 μm piezoelectric scanner and a cell culture chamber allowing to control the temperature, the humidity and the CO2 concentration as described (Alsteens et al. 2017, supra). Overview images of cell surfaces (20-30 μm^2) were recorded at imaging forces of ˜500 pN using PFQNM-LC probes (Bruker) having tip lengths of 17 μm, tip radii of 65 nm, and opening angles of 15°. All fluorescence microscopy and FD-based AFM imaging experiments were conducted under cell culture conditions using the combined AFM and fluorescence microscopy chamber (FIG. 1a) at 37° C. in either Mem a, nucleosides or Ham's F12 culture medium, depending on the cell type. A gas mixture of synthetic air with 5% CO2 at 95% relative humidity using a gas humidifier membrane (PermSelect silicone) was infused at 0.1 L min^−1 into the microscopy chamber. The humidity was controlled using a humidity sensor (Sensirion). Cantilevers were first calibrated using the thermal noise method (Huffer & Bechhoefer. Calibration of atomic-force microscope tips. Review of Scientific Instruments 1993, vol. 64, 1868-1873), yielding values ranging from 0.095 to 0.135 N m^−1 for PFQNM-LC probes. The AFM tip was oscillated in a sinusoidal fashion at 0.25 kHz with a 750 nm amplitude in the PeakForce Tapping mode. The sample was scanned using a frequency of 0.125 Hz and 256 pixels per line (256 lines). AFM images and FD curves were analyzed using the Nanoscope analysis software (v1.7, Bruker), Origin, and ImageJ (v1.52e). Individual FD curves detecting unbinding events between the virus and cell surface were analyzed using the Nanoscope analysis and Origin software. The baseline of the retraction curve was corrected using a linear fit on the last 30% of the retraction curve. Using the force-time curve, the loading rate (slope) of each rupture event was determined (FIG. 1c). Optical images were analyzed using Zen Blue software (Zeiss) (Alsteens et al. 2017, Newton et al. 2017, Delguste et al. 2018a, Delguste et al. 2018b, all supra).
The live cell experiments were conducted in the same manner as described above by scanning a suitable field of cells, followed by adding 1 mM of the respective glycan to the culture medium. […]

[2] = tested on: Lec2, Lec2-JAM-A, CHO and CHO-JAM-A cells; test: Infection of in vitro cultured cells by reovirus (Example 6); assay type: cell-based; conditions: co-administered with the virus; for effect on infectivity of T3SA+ towards Lec2-JAM-A and CHO-JAM-A: compared to T3SA+ without glycan
Description: T3SA+ and T3SA− reovirus stocks are prepared and purified virions obtained as set forth in Example 1. Lec2, Lec2-JAM-A, CHO and CHO-JAM-A cells are prepared and cultured as set forth in Example 1.
The cells are infected with the reovirus at a suitable multiplicity of infection (MOI) in batch suspensions or in monolayers and infectivity is analysed by an appropriate assay, such as quantification of viral protein expression in infected cells or a plaque assay.

| Compound | T3SA+ adhesion events in the high force range (400 to 500 pN) ([1]; 1 mM glycan) | T3SA+ binding frequency after glycan injection ([1]; 1 mM glycan) [%] | T3SA+ binding frequency before glycan injection [1] [%] | effect on infectivity of T3SA+ towards Lec2-JAM-A and CHO-JAM-A [2] | T3SA+ adhesion events in the high force range after neuraminidase treatment ([1]; NA-treated cells, 1 mM glycan, FIG. 17) | increase in T3SA+ binding after glycan injection on neuraminidase-treated cells ([1]; neuraminidase 40 mUnit/mL for 1 h, then 1 mM glycan) [%] | effect on infectivity of T3SA− towards Lec2-JAM-A or CHO-JAM-A [2] |
| --- | --- | --- | --- | --- | --- | --- | --- |
| CC(=O)N[C@H]1[C@H](O[C@H]2[C@@H](O)[C@@H](CO)O[C@@H](O[C@H]3[C@H](O)[C@@H](O)C(O)O[C@@H]3CO)[C@@H]2O)O[C@H](CO)[C@@H](O[C@@H]2O[C@H](CO)[C@H](O)[C@H](O)[C@H]2O)[C@@H]1O (mixture of isomers) [LNnT, lacto-N-neotetraose, reference compound] | no significant change | 3.9 | 3.8 | does not affect infectivity | – | – | – |
| CC(=O)N[C@H]1[C@H]([C@H](O)[C@H](O)CO)OC(O)(C(=O)O)C[C@@H]1O (stereo partly shown) [Neu5Ac, N-acetylneuraminic acid] | more adhesion events in the high force range | 4.9 | 3.9 | significantly increase infectivity | more adhesion events in the high force range | ~20 | do not affect infectivity |
| sialyl-lacto-N-tetraose a [LSTa] | more adhesion events in the high force range | 4.8 | 3.8 | significantly increase infectivity | – | – | do not affect infectivity |
